Measurements reported in ChEMBL document CHEMBL1146891, “Preparation of 1-(3-aminobenzo[d]isoxazol-5-yl)-1H-pyrazolo[4,3-d]pyrimidin-7(6H)-ones as potent, selective, and efficacious inhibitors of coagulation factor Xa” (Bioorg Med Chem Lett, 2006).
Where a name gives a salt, the structure may show the parent alone. Each block holds one compound with its values, some of them ahead of it.

Tests used:
Coagulation factor X [1] = target: T1, Coagulation factor X (Homo sapiens, UniProt P00742); assay: Anticoagulant activity in human plasma measured as activated partial thromboplastin time; type: functional, cell-free
[2] = target: T2, Coagulation factor VII/tissue factor (Homo sapiens) (UniProt P08709+P13726); assay: Anticoagulant activity in human plasma measured as prothrombin time; type: functional, cell-free
[3] = target: T2, Coagulation factor VII/tissue factor (Homo sapiens); assay: Anticoagulant activity in rabbit plasma measured as prothrombin time; type: functional, cell-free; conditions: Oryctolagus cuniculus, target entry is the homologue from another species
Homo sapiens [4] = organism: Homo sapiens; assay: Selectivity for f10a over chymotrypsin
[5] = target: Thrombin and coagulation factor X (Homo sapiens) (UniProt P00734+P00742); assay: Selectivity for f10a over thrombin; type: protein assay
Homo sapiens [6] = organism: Homo sapiens; assay: Selectivity for f10a over trypsin
Homo sapiens [7] = organism: Homo sapiens; assay: Selectivity for f10a over activated protein C
[8] = target: Coagulation factor VII and X (Homo sapiens) (UniProt P00742+P08709); assay: Selectivity for f10a over f7a; type: protein assay
Homo sapiens [9] = organism: Homo sapiens; assay: Selectivity for f10a over plasmin
Homo sapiens [10] = organism: Homo sapiens; assay: Selectivity for f10a over tPA
[11] = target: Coagulation factor X and plasma kallikrein (Homo sapiens) (UniProt P03952+P00742); assay: Selectivity for f10a over plasma kallikrein; type: cell-free
Homo sapiens [12] = organism: Homo sapiens; assay: Selectivity for f10a over urokinase
Coagulation factor X [13] = target: T1, Coagulation factor X; assay: Binding affinity to human f10a
[14] = Stability at pH 1.0; type: physicochemical; conditions: buffer
[15] = Stability at pH 4.0; type: physicochemical; conditions: buffer
[16] = Protein binding in rabbit plasma; type: ADME, organism-based, Oryctolagus cuniculus; conditions: read-out: PPB (converted)
Prothrombin = Prothrombin (Homo sapiens, UniProt P00734); assay: Binding affinity to human thrombin
Trypsin = Trypsin (Homo sapiens, UniProt P07477+P07478+P35030); assay: Binding affinity to human trypsin; type: protein assay
[17] = target: Vitamin K-dependent protein C (Homo sapiens, UniProt P04070); assay: Binding affinity to human activated protein C
Coagulation factor IX = Coagulation factor IX (Homo sapiens, UniProt P00740); assay: Binding affinity to human f9a
Plasminogen = Plasminogen (Homo sapiens, UniProt P00747); assay: Binding affinity to human plasmin
[18] = target: Tissue-type plasminogen activator (Homo sapiens, UniProt P00750); assay: Binding affinity to human tPA
[19] = target: Urokinase-type plasminogen activator (Homo sapiens, UniProt P00749); assay: Binding affinity to human urokinase
Chymotrypsinogen B = Chymotrypsinogen B (Homo sapiens, UniProt P17538); assay: Binding affinity to human chymotrypsin
Coagulation factor X [20] = target: T3, Coagulation factor X (Oryctolagus cuniculus, UniProt O19045); assay: Binding affinity to rabbit f10a
T3 sequence (O19045 whole entry): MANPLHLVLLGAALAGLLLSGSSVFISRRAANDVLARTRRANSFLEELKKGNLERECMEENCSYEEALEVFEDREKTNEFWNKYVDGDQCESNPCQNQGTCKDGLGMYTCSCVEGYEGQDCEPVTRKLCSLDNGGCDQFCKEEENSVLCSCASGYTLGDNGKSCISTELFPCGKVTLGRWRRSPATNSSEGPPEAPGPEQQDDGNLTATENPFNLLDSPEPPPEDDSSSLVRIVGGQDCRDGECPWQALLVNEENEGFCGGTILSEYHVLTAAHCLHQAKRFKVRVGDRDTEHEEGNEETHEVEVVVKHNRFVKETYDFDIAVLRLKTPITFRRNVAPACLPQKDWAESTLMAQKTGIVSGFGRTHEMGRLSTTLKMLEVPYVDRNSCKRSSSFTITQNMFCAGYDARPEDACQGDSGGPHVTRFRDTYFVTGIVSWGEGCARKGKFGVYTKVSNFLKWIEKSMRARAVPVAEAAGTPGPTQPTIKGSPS

Oryctolagus cuniculus = assay: Inhibition of thrombus formation in iv dosed rabbit arterio-venous shunt model; type: functional, organism-based
[21] = Clearance in dog at 0.5 mg/kg, iv and 0.2 mg/kg, po; type: ADME, organism-based, Canis lupus familiaris; conditions: in vivo
[22] = Volume of distribution in dog at 0.5 mg/kg, iv and 0.2 mg/kg, po; type: ADME, organism-based, Canis lupus familiaris; conditions: in vivo, read-out: Vdss
[23] = Half life in dog at 0.5 mg/kg, iv and 0.2 mg/kg, po; type: ADME, organism-based, Canis lupus familiaris; conditions: in vivo
[24] = Bioavailability in dog at 0.5 mg/kg, iv and 0.2 mg/kg, po; type: ADME, organism-based, Canis lupus familiaris; conditions: in vivo
[25] = Apparent permeability in Caco-2 cells; type: ADME, cell-based; conditions: human

Plasminogen, sequence (P00747 97-580 limits assumed): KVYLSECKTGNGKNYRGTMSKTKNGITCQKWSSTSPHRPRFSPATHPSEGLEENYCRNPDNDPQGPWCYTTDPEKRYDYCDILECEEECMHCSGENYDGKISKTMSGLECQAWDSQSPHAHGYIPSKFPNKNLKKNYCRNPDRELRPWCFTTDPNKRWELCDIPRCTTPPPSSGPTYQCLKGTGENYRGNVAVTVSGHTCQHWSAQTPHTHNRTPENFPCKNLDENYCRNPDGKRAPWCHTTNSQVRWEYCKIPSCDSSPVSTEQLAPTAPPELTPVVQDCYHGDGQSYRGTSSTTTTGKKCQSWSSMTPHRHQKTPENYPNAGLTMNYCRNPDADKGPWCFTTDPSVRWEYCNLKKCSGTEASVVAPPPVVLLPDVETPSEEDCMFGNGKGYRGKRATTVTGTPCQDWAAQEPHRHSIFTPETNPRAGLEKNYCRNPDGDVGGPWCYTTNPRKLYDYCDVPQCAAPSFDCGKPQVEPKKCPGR
Plasminogen, sequence (P00747 581-810 limits assumed): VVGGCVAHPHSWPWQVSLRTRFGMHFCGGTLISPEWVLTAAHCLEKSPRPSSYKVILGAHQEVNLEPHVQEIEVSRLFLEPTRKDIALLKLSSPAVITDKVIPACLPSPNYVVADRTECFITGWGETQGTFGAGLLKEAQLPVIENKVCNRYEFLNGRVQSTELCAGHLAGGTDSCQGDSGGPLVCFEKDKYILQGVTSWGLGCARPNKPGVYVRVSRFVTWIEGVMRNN
Coagulation factor IX, sequence (P00740 47-191 limits assumed): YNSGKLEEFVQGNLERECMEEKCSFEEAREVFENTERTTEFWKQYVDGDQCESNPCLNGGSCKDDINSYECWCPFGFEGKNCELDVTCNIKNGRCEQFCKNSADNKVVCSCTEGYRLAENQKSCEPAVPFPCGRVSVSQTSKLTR
Coagulation factor IX, sequence (P00740 227-461 limits assumed): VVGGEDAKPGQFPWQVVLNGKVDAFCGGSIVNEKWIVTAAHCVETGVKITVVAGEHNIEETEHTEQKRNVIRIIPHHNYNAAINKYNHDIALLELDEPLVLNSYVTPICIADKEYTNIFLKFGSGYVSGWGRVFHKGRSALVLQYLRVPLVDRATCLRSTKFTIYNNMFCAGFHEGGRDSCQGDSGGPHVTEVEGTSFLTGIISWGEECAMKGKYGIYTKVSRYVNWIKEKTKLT
Coagulation factor X and plasma kallikrein (Homo sapiens), sequence (P00742 whole entry, looked up): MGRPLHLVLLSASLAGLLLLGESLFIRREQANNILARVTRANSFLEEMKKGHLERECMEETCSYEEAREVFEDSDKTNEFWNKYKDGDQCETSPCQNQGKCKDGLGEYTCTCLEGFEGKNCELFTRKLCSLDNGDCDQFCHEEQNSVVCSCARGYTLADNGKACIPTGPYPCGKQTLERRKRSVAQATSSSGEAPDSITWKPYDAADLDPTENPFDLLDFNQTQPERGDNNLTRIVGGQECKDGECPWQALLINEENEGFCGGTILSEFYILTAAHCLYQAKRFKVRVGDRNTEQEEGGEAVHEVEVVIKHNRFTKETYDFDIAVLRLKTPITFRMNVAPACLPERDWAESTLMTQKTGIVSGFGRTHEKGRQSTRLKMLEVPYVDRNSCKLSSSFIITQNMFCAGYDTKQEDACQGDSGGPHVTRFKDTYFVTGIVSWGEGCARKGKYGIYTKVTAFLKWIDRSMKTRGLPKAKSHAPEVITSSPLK
Coagulation factor X and plasma kallikrein (Homo sapiens), sequence (P03952 whole entry, looked up): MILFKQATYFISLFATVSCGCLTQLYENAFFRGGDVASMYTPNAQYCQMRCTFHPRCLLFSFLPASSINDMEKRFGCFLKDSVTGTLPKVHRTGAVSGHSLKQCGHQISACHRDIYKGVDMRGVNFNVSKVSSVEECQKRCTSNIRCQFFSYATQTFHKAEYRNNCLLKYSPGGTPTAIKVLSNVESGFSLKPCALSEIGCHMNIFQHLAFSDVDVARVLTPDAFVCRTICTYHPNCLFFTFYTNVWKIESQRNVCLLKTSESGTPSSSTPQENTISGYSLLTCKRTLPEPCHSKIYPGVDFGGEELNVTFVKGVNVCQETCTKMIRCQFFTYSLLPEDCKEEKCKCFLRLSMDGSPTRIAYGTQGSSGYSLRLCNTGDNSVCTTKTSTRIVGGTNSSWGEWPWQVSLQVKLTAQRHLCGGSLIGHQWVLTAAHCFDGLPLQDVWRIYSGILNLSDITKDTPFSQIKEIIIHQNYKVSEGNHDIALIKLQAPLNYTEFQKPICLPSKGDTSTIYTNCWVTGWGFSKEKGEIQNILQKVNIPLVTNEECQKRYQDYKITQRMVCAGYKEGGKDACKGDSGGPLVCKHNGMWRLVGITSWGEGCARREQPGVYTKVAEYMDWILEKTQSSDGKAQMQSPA
Thrombin and coagulation factor X (Homo sapiens), sequence (P00742 whole entry, looked up, other chains not shown): as the sequence (P00742 whole entry, looked up) above
Vitamin K-dependent protein C, sequence (P04070 43-197 limits assumed): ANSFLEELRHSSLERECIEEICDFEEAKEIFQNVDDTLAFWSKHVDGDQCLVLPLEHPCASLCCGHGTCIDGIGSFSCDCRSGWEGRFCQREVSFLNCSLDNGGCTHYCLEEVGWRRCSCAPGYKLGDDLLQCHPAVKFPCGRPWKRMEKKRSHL
Vitamin K-dependent protein C, sequence (P04070 212-461 limits assumed): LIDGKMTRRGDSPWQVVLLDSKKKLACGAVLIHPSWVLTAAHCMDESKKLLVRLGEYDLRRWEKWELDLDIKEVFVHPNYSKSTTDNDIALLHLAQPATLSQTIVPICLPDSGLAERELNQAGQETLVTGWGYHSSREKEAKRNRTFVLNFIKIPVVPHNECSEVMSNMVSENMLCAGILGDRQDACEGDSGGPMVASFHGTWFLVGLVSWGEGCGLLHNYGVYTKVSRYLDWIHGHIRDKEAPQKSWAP
Tissue-type plasminogen activator, sequence (P00750 whole entry): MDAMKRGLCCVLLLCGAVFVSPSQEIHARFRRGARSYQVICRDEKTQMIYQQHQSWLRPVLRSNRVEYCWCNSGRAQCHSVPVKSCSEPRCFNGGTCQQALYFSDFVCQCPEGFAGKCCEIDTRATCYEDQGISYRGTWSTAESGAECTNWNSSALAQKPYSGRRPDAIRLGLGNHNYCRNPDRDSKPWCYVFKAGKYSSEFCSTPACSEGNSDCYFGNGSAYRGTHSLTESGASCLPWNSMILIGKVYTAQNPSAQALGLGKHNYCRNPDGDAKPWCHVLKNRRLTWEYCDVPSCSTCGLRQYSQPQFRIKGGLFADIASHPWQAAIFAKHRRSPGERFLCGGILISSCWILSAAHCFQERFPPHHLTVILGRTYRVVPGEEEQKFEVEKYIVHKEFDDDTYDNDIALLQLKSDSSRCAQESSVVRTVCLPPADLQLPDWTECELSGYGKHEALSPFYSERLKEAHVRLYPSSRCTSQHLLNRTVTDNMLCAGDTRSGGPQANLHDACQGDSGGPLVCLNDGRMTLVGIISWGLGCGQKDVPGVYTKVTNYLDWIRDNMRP
T1 sequence (P00742 41-179 limits assumed): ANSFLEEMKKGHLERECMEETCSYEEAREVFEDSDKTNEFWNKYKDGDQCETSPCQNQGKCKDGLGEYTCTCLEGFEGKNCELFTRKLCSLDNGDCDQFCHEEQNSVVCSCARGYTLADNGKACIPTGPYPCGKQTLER
T1 sequence (P00742 235-488 limits assumed): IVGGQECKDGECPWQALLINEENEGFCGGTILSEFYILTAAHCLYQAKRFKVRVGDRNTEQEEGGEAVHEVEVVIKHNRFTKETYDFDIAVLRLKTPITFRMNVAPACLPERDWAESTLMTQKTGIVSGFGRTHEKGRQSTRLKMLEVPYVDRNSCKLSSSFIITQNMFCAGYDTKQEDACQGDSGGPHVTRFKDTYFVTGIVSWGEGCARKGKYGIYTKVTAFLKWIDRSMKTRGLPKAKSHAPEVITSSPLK
Chymotrypsinogen B, sequence (P17538 34-164 limits assumed, other chains not shown): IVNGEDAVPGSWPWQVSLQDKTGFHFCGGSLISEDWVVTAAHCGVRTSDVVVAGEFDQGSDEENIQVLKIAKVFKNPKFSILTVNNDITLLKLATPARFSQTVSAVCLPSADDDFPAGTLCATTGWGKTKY
Chymotrypsinogen B, sequence (P17538 167-263 limits assumed, other chains not shown): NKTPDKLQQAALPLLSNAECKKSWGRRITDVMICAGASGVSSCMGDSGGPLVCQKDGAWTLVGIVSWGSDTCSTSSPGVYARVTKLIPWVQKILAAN

2aPTT (Coagulation factor X [1]): 5.8 µM | 2PT [2]: 2.5 µM | 2PT [3]: 3.4 µM | Ratio Ki (Homo sapiens [4]): > 1000 | Ratio Ki [5]: > 500 | Ratio Ki (Homo sapiens [6]): > 1000 | Ratio Ki (Homo sapiens [7]): > 1000 | Ratio Ki [8]: > 1000 | Ratio Ki (Homo sapiens [9]): > 1000 | Ratio Ki (Homo sapiens [10]): > 1000 | Ratio Ki [11]: > 1000 | Ratio Ki (Homo sapiens [12]): > 1000
SMILES: Cc1nn(-c2ccc3onc(N)c3c2)c2c(=O)n(-c3ccc(-c4ccccc4CN4CC[C@@H](O)C4)cc3)c(C)nc12 [listing 1 of 2 here]

Ki (Coagulation factor X [13]): 0.35 nM | 2aPTT (Coagulation factor X [1]): 3.7 µM | 2PT [2]: 2.6 µM | Stability [14]: 83.2% | Stability [15]: 72.3%
SMILES: CN(C)Cc1ccccc1-c1ccc(-n2cnc3c(C(F)(F)F)nn(-c4ccc5onc(N)c5c4)c3c2=O)cc1

2aPTT (Coagulation factor X [1]): 1.7 µM | 2PT [2]: 1.4 µM | 2PT [3]: 1.8 µM | Ratio Ki (Homo sapiens [4]): > 1000 | Ratio Ki [5]: > 500 | Ratio Ki (Homo sapiens [6]): > 1000 | Ratio Ki (Homo sapiens [7]): > 1000 | Ratio Ki [8]: > 1000 | Ratio Ki (Homo sapiens [9]): > 1000 | Ratio Ki (Homo sapiens [10]): > 1000 | Ratio Ki [11]: > 1000 | Ratio Ki (Homo sapiens [12]): > 1000
SMILES: Cc1nn(-c2ccc3onc(N)c3c2)c2c(=O)n(-c3ccc(-c4ccccc4CN(C)C)cc3)c(C)nc12 [listing 1 of 2 here]

2aPTT (Coagulation factor X [1]): 2.9 µM | 2PT [2]: 1.6 µM | Ratio Ki (Homo sapiens [4]): > 1000 | Ratio Ki [5]: > 500 | Ratio Ki (Homo sapiens [6]): > 1000 | Ratio Ki (Homo sapiens [7]): > 1000 | Ratio Ki [8]: > 1000 | Ratio Ki (Homo sapiens [9]): > 1000 | Ratio Ki (Homo sapiens [10]): > 1000 | Ratio Ki [11]: > 1000 | Ratio Ki (Homo sapiens [12]): > 1000
SMILES: Nc1noc2ccc(-n3nc(C(F)(F)F)c4c3C(=O)N(c3ccc(-c5ccccc5CN5CC[C@@H](O)C5)cc3)CN4)cc12 [listing 1 of 2 here]

Ki (Coagulation factor X [13]): 0.53 nM | Stability [14]: 97.2% | Stability [15]: 90.1%
SMILES: Cc1nn(-c2ccc3onc(N)c3c2)c2c(=O)n(-c3ccc(-c4ccccc4CN(C)C)cc3)cnc12

2aPTT (Coagulation factor X [1]): 9.2 µM | 2PT [2]: 4.1 µM | 2PT [3]: 2.7 µM
SMILES: Cc1nc2c(C(F)(F)F)nn(-c3ccc4onc(N)c4c3)c2c(=O)n1-c1ccc(-c2ccccc2CN(C)C)cc1 [listing 1 of 2 here]

fraction unbound [16]: 0.07
SMILES: CN(C)Cc1nccn1-c1ccc(NC(=O)c2cc(C(F)(F)F)nn2-c2ccc3onc(N)c3c2)c(F)c1 [RAZAXABAN HYDROCHLORIDE]

Ki (Coagulation factor X [13]): 0.27 nM | Ki (Prothrombin): 305 nM | Ki (Trypsin): > 4200 nM | Ki [17]: 19000 nM | Ki (Coagulation factor IX): > 41000 nM | Ki (Plasminogen): > 15000 nM | Ki [18]: 23000 nM | Ki [19]: > 13000 nM | Ki (Chymotrypsinogen B): 960 nM | Ki (Coagulation factor X [20]): 0.3 nM | Stability [14]: 89.7% | Stability [15]: 94.7%
SMILES: Cc1nn(-c2ccc3onc(N)c3c2)c2c(=O)n(-c3ccc(-c4ccccc4CN(C)C)cc3)c(C)nc12 [listing 2 of 2 here]
ID50 (Oryctolagus cuniculus): 2 µmol/kg/h

Ki (Prothrombin): 130 nM | Ki (Trypsin): > 4200 nM | Ki [17]: > 37000 nM | Ki (Coagulation factor IX): 37000 nM | Ki (Plasminogen): > 25000 nM | Ki [18]: > 40000 nM | Ki [19]: > 40000 nM | Ki (Chymotrypsinogen B): > 11000 nM | Ki (Coagulation factor X [20]): 0.2 nM | IC50 (Oryctolagus cuniculus; Oryctolagus cuniculus): 290 nM | fraction unbound [16]: 0.03
SMILES: Cc1nc2c(C(F)(F)F)nn(-c3ccc4onc(N)c4c3)c2c(=O)n1-c1ccc(-c2ccccc2CN(C)C)cc1 [listing 2 of 2 here]
ID50 (Oryctolagus cuniculus): 1.9 µmol/kg/h

Ki (Coagulation factor X [13]): 0.21 nM | Ki (Prothrombin): 130 nM | Ki (Trypsin): > 4200 nM | Ki [17]: > 20000 nM | Ki (Coagulation factor IX): > 41000 nM | Ki (Plasminogen): > 15000 nM | Ki [18]: > 33000 nM | Ki [19]: > 13000 nM | Ki (Chymotrypsinogen B): 3240 nM
SMILES: Nc1noc2ccc(-n3nc(C(F)(F)F)c4c3C(=O)N(c3ccc(-c5ccccc5CN5CC[C@@H](O)C5)cc3)CN4)cc12 [listing 2 of 2 here]

Ki (Coagulation factor X [13]): 0.37 nM | Ki (Prothrombin): 245 nM | Ki (Trypsin): > 4200 nM | Ki [17]: > 76000 nM | Ki (Coagulation factor IX): > 41000 nM | Ki (Plasminogen): > 15000 nM | Ki [18]: > 33000 nM | Ki [19]: > 13000 nM | Ki (Chymotrypsinogen B): 580 nM | Ki (Coagulation factor X [20]): 0.59 nM | fraction unbound [16]: 0.09
SMILES: Cc1nn(-c2ccc3onc(N)c3c2)c2c(=O)n(-c3ccc(-c4ccccc4CN4CC[C@@H](O)C4)cc3)c(C)nc12 [listing 2 of 2 here]
ID50 (Oryctolagus cuniculus): 2.4 µmol/kg/h

clearance [21]: 55 mL/min/kg | Vd [22]: 9.5 L/kg | half-life [23]: 2.5 h | bioavailability [24]: 2% | Papp [25]: 11 ×10⁻⁶ cm/s
SMILES: Cc1nn(-c2ccc3onc(N)c3c2)c2c(=O)n(-c3ccc(-c4ccccc4CN(C)C)cc3)cnc12.O=C(O)C(F)(F)F

clearance [21]: 16.3 mL/min/kg | Vd [22]: 4.2 L/kg | half-life [23]: 4.3 h | bioavailability [24]: 27% | Papp [25]: 3.9 ×10⁻⁶ cm/s
SMILES: Nc1noc2ccc(-n3nc(C(F)(F)F)c4c3C(=O)N(c3ccc(-c5ccccc5CN5CC[C@@H](O)C5)cc3)CN4)cc12.O=C(O)C(F)(F)F
